{
  "source": "patent US6204220A",
  "about": "“Substituted 2-oxo-3-alkynoic acids and methods of use thereof” (Rutgers, The State University of New Jersey, priority 1999, dated 2001)",
  "assay_type_in_all_cases": "biochemical, E. coli",
  "key": {"E2-E3 subcomplex": {"target": "T1, E2-E3 subcomplex (Escherichia coli, UniProt P06959+P0A9P0)", "T1 construct": "made in house; host or cells: resolved from PDHc expressed in E. coli JRG1342", "T1 sequence (P0A9P0 2-474)": "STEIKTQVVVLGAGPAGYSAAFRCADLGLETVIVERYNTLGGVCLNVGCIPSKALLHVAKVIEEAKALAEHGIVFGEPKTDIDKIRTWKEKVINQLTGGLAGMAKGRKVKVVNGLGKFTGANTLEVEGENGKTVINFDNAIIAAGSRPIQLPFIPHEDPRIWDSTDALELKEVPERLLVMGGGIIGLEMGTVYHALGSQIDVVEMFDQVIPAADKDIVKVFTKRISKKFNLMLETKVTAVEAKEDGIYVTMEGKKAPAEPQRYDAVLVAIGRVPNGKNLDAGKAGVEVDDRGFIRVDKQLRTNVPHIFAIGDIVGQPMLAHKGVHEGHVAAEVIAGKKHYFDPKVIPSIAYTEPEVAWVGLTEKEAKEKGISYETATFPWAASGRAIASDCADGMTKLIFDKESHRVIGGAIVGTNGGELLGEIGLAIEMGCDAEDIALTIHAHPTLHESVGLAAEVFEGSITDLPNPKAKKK", "T1 sequence (P06959 whole entry)": "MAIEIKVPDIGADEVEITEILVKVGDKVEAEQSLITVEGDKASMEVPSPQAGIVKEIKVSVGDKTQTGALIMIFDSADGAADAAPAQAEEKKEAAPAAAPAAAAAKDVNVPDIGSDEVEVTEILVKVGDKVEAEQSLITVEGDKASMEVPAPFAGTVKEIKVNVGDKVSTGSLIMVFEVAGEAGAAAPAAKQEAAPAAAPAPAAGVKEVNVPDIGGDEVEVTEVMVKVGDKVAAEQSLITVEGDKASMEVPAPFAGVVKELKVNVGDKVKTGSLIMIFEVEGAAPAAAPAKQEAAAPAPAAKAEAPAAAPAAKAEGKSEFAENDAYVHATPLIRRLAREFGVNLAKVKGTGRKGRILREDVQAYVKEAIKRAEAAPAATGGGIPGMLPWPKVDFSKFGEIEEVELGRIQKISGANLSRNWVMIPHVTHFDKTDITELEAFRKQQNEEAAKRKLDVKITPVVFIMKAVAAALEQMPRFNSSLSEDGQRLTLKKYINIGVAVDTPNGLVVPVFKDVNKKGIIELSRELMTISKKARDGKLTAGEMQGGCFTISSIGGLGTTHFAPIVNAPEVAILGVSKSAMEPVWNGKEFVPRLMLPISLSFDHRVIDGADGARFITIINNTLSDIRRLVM", "test": "Preincubation of E2-E3 subcomplex with inhibitor, reconstitution with unmodified E1", "details": "up to 20 min preincubation, unmodified E1 added", "protocol": "(§1) Activity and related measurements on PDHc. The overall enzymatic reaction of the PDH complex was assayed using a Varian DMS 300 spectrophotometer or the Cobas Bio (Roche Diagnostics, Somerville, N.J.) automated centrifugal analyzer, monitoring the pyruvate-dependent reduction of NAD^+ at 340 nm. The reaction medium contained in 1 mL (DMS 300) or 0.25 mL (Cobas-Bio) test volume: 0.1 M Tris-HCl, pH 8.0; 1 mM MgCl2; 2 mM sodium pyruvate; 2.5 mM NAD^+; 0.052-0.2 mM coenzyme A; 0.2 mM ThDP; and 2.6 mM DTT at 27° C. The reaction was initiated either by adding enzyme to a mixture of all other components, or by adding CoA.\nWhen the E2-E3 subcomplex was preincubated for different times (up to 20 min) with 2-oxo-3-butynoic acid, followed by dilution into a reaction mixture containing all components of the PDHc assay including unmodified E1 component, 100% of the activity could be reconstituted. In contrast, when resolved E1 was treated with inhibitors for different time periods before reconstitution with unmodified E2-E3 complex, a time-dependent decrease in the overall activity was observed (see FIG. 1B for resolved E1 reacted with 2-oxo-3-butynoic acid)."}, "[1]": {"target": "T2, C259N variant of 1-lip PDHc (Escherichia coli, UniProt P0AFG8, C260N)", "T2 construct": "made in house; host or cells: E. coli JRG1342 (PDHc null), Ptac plasmid pGS596", "T2 sequence (P0AFG8 2-887 C260N)": "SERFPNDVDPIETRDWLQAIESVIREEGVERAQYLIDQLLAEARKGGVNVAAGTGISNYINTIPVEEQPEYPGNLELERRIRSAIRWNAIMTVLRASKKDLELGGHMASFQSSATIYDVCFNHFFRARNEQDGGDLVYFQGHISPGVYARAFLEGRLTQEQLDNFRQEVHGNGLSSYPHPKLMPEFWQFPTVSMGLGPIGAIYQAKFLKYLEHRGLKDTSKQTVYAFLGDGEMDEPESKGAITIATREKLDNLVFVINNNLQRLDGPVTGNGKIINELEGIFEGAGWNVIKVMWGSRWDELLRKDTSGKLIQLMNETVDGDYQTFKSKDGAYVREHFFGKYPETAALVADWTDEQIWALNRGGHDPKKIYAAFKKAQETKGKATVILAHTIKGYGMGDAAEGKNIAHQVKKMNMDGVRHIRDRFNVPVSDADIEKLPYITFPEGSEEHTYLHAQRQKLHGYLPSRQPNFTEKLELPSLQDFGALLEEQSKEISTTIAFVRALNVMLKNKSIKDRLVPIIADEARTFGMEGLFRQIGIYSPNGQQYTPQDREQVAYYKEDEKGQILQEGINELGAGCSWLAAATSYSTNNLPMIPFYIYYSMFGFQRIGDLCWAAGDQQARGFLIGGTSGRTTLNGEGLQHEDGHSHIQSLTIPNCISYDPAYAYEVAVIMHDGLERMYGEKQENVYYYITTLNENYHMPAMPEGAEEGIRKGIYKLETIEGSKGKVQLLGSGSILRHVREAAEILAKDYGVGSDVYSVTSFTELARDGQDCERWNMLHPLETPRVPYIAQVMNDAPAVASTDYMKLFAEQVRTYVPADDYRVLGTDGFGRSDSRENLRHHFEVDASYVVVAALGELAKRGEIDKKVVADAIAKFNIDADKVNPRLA", "test": "Inactivation of C259N variant of 1-lip PDHc", "details": "butynoic acid at 1 mM", "protocol": "(§2) FIG. 6. Inactivation of 1-lip PDHc and its C259N and C259S variants by 2-oxo-3-butynoic acid. 1-lip PDHc (0.162 mg/mL) or the C259N and C259S variants of 1-lip PDHc (0.162 mg/mL) in 20 mM KH2 PO4 buffer, pH 7.5, containing 1 mM ThDP and 5 mM MgCl2 were incubated in the absence (curve 1: 1-lip PDHc and C259N variant) or in the presence of 1 mM of 2-oxo-3-butynoic acid (curve 2: the C259N variant; curve 3: 1-lip PDHc and the C259S variant) in a total volume 0.5 mL in the dark. At different times, aliquots of 50 μL were withdrawn and the overall activity was measured as described in FIG. 1A.\n(§3) Bacterial strains and plasmids for PDHc. Derivatives of the PDHc null strain, E. coli JRG1342 contained Ptac expression plasmids encoding PDHc with E2 chains bearing three lipoyl domains (3-lip PDHc; pGS523, the wild type parental complex), or a single lipoyl domain in each E2 subunit (1-lip PDHc; pGS501), and variant 1-lip PDH complexes with mutations in the E1 gene leading to C259S (pGS457) and C259N (pGS596) substitutions (Machado et al., 1992; Machado, 1993).\n(§4) Inactivation of 1-lip and 3-lip PDH complexes and resolved E1 component by 2-oxo-3-alkynoic acids. […]"}, "[2]": {"target": "T3, C259S variant of 1-lip PDHc (Escherichia coli, UniProt P0AFG8, C260S)", "T3 construct": "made in house; host or cells: E. coli JRG1342 (PDHc null), Ptac plasmid pGS457", "T3 sequence (P0AFG8 2-887 C260S)": "as the sequence (P0AFG8 2-887 C260N) above, with N259S counted along it", "test": "Inactivation of C259S variant of 1-lip PDHc", "details": "butynoic acid at 1 mM", "protocol": "as §2, §3, §4"}, "PDHc": {"target": "PDHc (Escherichia coli, UniProt P0AFG8)", "sequence (P0AFG8 2-887)": "as the sequence (P0AFG8 2-887 C260N) above, with N259C counted along it", "test": "Inactivation of 1-lip and 3-lip PDH complexes by 2-oxo-3-alkynoic acids (overall NADH assay)", "set-up": "made in house; host or cells: E. coli JRG1342 (PDHc null) with Ptac plasmid pGS501 (1-lip) or pGS523 (3-lip)", "details": "for protection of PDHc from inactivation by pyruvate: 5 mM pyruvate, 1 mM ThDP, 5 mM MgCl2; for protection of PDHc from inactivation by pyruvate / inactivation of PDHc in the absence of ThDP: 3-lip (heptynoic) or 1-lip (butynoic) PDHc; for kapp, slow phase of inactivation / At (residual activity): 1-lip PDHc", "text": "as §3\nPurification of PDHc. Cultures for purification of 1-lip and 3-lip PDH complexes were grown at 37° C. in LB medium containing glucose (0.2%) and ampicillin (50 μg/mL). The PDH complexes were induced by adding IPTG to 60 μM as described by Russell et al. (1992). Cells were disrupted by ultrasonic treatment after preincubation with lysozyme (0.6 mg/mL final concentration) for 15 min. The PDHc was sedimented by ultracentrifugation (100,000×g for 3 h) and further purified by chromatography on a\nSephacryl S-400 HR column. Fractions containing PDHc were pooled and treated with ammonium sulfate to 70% saturation. The enzyme was dissolved in buffer A (20 mM potassium phosphate, pH 7.8, 2 mM Na2 EDTA, 1 mM PMSF, and 1 mM benzamidine.HCl) then dialyzed against the same buffer. The PDH complexes were stored in buffer A at -20° C.\nas §1\nOne unit of activity is defined as the amount of NADH produced (μmol) per min per mg protein. The activity of resolved E1 was measured after reconstitution with excess E2-E3 subcomplex using the NADH assay for PDHc activity.\nInactivation of 1-lip and 3-lip PDH complexes and resolved E1 component by 2-oxo-3-alkynoic acids. Intact 1-lip or 3-lip PDH complexes (0.050-0.1 mg) or resolved E1 component (0.05-0.09 mg) were incubated in the dark with 5 mM MgCl2, […] of 2-oxo-3-alkynoic acids in 20 mM KH2 PO4 buffer, pH 7.5 at room temperature in a total volume 0.5 mL. The initial activity (100%) was assayed prior to the addition of 2-oxo-3-alkynoic acids. Samples (50 μL) were withdrawn periodically and diluted into 1 mL of assay solution, containing all components necessary for assay of the overall activity. The activity of untreated enzyme was stable during the time of inactivation."}},
  "note": "Read-outs that look alike come from different tables or passages of the source.",
  "data": [
    {"smiles": "C#CC(=O)C(=O)O", "note": "[2-oxo-3-butynoic acid, 2-Oxo-3-butynoic acid]", "values": [
      {"measurement": "activity reconstituted after preincubation of E2-E3 subcomplex with inhibitor", "setting": "E2-E3 subcomplex", "value": 100, "unit": "%"},
      {"measurement": "inactivation of C259N variant", "setting": "[1]", "value": "inactivated"},
      {"measurement": "inactivation of C259S variant", "setting": "[2]", "value": "inactivated"},
      {"measurement": "Ki", "setting": "PDHc", "value": 7.9, "unit": "µM"},
      {"measurement": "inhibition / inactivation of PDHc (in words)", "setting": "PDHc", "value": "irreversibly inactivates"},
      {"measurement": "k for inactivation of PDHc", "setting": "PDHc; 0.11 mM inhibitor", "value": 0.69, "unit": "min⁻¹"},
      {"measurement": "protection of PDHc from inactivation by pyruvate", "setting": "PDHc", "value": "partially protected"},
      {"measurement": "kapp, slow phase of inactivation", "setting": "PDHc; 0.1 mM inhibitor", "value": 0.062, "unit": "min⁻¹"},
      {"measurement": "kapp, slow phase of inactivation", "setting": "PDHc; 0.5 mM inhibitor", "value": 0.053, "unit": "min⁻¹"},
      {"measurement": "kapp, slow phase of inactivation", "setting": "PDHc; 1.0 mM inhibitor", "value": 0.056, "unit": "min⁻¹"},
      {"measurement": "At (residual activity)", "setting": "PDHc; absence of pyruvate", "value": 20, "unit": "%"},
      {"measurement": "At (residual activity)", "setting": "PDHc; presence of 5 mM pyruvate", "value": 60, "unit": "%"},
      {"measurement": "inactivation of PDHc in the absence of ThDP", "setting": "PDHc", "value": "partial inactivation"},
      {"measurement": "extent of inactivation", "setting": "PDHc; 3-lip PDHc", "value": 99.62, "unit": "%"},
      {"measurement": "restoration of activity after dilution", "setting": "PDHc; 3-lip PDHc, 20-fold dilution, 50 min incubation in overall reaction mixture", "value": "no restoration of activity"},
      {"measurement": "PDHc activity at new plateau, of original activity", "setting": "PDHc; after a fresh portion of inhibitor was added", "value": "6-8%"},
      {"measurement": "PDHc activity at plateau", "setting": "PDHc; first portion of inhibitor, residual activity", "value": "about 30%"},
      {"measurement": "kinact/KI", "setting": "PDHc; pH 7.5, second-order rate constant for inactivation, read-out: ki/Ki PDHc (converted)", "value": 1730, "unit": "M⁻¹ s⁻¹"},
      {"measurement": "Ki", "setting": "PDHc; read-out: Ki PDHc, PDHc (1-lip PDHc)", "value": 7.9, "unit": "µM"}
    ]},
    {"smiles": "CCCC#CC(=O)C(=O)O", "note": "[2-oxo-3-heptynoic acid, 2-Oxo-3-heptynoic acid]", "values": [
      {"measurement": "Ki", "setting": "PDHc", "value": 2850, "unit": "µM"},
      {"measurement": "protection of PDHc from inactivation by pyruvate", "setting": "PDHc", "value": "failed to protect"},
      {"measurement": "inactivation of PDHc in the absence of ThDP", "setting": "PDHc", "value": "still inactivated to the same extent, but at a slower rate"},
      {"measurement": "protection from inactivation by DTT", "setting": "PDHc; 3-lip PDHc, 5 mM DTT", "value": "partial protection"},
      {"measurement": "kinact/KI", "setting": "PDHc; pH 7.5, read-out: ki/Ki PDHc", "value": 2.83, "unit": "M⁻¹ s⁻¹"},
      {"measurement": "reactivation of inactivated 3-lip PDHc by hydroxylamine", "setting": "PDHc; prolonged incubation", "value": "failure to reactivate"}
    ]}
  ]
}
